Laboratory results from patent publication US10392368B2, “Pyrazolo and triazolo bicyclic compounds as JAK kinase inhibitors” (THERAVANCE BIOPHARMA R&D IP, LLC, priority 2017, dated 2019).

Columns and labels:
[1] = molecular target: T1, JAK3 (Homo sapiens, UniProt P52333); assay: Biochemical JAK3 kinase assay (LanthaScreen); set-up: GST; purchased Life Technologies; conditions: for JAK3 (pKi)-JAK1 (pKi): selectivity JAK3 over JAK1, difference of pKi
T1 sequence (P52333 1-1124): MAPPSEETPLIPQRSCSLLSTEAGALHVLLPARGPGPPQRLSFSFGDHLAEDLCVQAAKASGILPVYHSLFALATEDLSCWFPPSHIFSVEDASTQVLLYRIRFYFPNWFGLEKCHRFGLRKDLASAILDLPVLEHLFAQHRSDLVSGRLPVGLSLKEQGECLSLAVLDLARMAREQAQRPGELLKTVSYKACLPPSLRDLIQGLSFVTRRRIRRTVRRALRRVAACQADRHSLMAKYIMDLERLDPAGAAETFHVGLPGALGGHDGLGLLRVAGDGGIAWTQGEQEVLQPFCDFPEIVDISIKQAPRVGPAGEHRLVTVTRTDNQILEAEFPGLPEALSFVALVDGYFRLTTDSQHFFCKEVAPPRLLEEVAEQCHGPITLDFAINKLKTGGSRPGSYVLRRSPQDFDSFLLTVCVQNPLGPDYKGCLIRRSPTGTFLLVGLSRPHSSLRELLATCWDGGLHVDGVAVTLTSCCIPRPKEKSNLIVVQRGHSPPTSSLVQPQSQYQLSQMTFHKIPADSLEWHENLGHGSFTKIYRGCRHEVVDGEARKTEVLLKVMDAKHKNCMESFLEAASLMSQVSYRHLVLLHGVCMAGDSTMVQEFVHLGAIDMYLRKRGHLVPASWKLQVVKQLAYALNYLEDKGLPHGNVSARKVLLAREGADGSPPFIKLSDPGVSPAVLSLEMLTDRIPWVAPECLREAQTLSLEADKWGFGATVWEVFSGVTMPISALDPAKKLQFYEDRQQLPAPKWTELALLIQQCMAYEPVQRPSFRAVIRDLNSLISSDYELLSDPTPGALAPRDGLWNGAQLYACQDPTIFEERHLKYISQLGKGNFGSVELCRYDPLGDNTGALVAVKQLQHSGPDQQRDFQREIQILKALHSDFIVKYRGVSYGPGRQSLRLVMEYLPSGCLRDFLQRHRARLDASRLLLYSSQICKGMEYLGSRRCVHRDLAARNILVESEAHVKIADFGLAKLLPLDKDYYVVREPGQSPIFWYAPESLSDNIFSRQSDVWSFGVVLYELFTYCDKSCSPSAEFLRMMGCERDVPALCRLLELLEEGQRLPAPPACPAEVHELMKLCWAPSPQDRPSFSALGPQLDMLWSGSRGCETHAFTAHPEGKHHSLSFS
How it was run: (§1)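 GST-JAK + GFP-STAT1 peptide + cpd, 1 h preinc RT; ATP start, 1% DMSO, 1 h RT; stop 10 mM EDTA + 2 nM Tb-anti-pSTAT1; 1 h; TR-FRET 520/495. % inhib vs DMSO/background → IC50 (4-PL) → pKi (Cheng-Prusoff).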

[2] = molecular target: T2, Tyk2 (Homo sapiens, UniProt P29597); assay: Biochemical Tyk2 kinase assay (LanthaScreen)
T2 construct: GST; purchased Life Technologies
T2 sequence (P29597 whole entry): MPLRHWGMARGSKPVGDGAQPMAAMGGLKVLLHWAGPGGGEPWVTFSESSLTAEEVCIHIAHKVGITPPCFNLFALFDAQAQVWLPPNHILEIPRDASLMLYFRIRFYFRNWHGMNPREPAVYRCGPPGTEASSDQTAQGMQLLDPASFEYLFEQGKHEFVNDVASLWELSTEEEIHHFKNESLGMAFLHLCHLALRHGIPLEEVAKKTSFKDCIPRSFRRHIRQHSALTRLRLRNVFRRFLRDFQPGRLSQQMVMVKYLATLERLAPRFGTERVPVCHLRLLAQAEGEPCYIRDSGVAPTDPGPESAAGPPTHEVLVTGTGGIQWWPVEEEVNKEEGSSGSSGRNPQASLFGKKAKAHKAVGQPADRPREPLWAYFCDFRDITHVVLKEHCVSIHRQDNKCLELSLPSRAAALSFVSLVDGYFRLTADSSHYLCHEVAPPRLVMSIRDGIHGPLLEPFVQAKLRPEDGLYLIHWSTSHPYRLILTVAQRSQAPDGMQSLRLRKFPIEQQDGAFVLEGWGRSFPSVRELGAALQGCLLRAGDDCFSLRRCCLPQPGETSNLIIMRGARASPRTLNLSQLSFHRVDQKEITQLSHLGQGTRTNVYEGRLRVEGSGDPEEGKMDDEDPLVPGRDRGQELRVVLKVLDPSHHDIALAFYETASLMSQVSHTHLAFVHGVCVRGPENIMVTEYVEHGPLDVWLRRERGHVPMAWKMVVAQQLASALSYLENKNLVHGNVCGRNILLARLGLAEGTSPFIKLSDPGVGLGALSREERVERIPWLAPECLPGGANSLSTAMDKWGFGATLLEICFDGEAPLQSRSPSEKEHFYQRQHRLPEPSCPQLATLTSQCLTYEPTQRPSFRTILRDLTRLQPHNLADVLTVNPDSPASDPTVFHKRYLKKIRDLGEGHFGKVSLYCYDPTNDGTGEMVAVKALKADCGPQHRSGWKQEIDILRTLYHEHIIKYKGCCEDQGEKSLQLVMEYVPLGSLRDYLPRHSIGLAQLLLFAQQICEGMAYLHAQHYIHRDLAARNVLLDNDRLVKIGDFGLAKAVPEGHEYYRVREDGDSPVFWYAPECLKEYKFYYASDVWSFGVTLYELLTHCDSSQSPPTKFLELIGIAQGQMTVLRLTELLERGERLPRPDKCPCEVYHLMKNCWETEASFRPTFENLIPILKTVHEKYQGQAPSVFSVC
How it was run: as §1

[3] = molecular target: T3, JAK1 (Homo sapiens, UniProt P23458); assay: Biochemical JAK1 kinase assay (LanthaScreen)
T3 construct: GST; purchased Life Technologies
T3 sequence (P23458 whole entry): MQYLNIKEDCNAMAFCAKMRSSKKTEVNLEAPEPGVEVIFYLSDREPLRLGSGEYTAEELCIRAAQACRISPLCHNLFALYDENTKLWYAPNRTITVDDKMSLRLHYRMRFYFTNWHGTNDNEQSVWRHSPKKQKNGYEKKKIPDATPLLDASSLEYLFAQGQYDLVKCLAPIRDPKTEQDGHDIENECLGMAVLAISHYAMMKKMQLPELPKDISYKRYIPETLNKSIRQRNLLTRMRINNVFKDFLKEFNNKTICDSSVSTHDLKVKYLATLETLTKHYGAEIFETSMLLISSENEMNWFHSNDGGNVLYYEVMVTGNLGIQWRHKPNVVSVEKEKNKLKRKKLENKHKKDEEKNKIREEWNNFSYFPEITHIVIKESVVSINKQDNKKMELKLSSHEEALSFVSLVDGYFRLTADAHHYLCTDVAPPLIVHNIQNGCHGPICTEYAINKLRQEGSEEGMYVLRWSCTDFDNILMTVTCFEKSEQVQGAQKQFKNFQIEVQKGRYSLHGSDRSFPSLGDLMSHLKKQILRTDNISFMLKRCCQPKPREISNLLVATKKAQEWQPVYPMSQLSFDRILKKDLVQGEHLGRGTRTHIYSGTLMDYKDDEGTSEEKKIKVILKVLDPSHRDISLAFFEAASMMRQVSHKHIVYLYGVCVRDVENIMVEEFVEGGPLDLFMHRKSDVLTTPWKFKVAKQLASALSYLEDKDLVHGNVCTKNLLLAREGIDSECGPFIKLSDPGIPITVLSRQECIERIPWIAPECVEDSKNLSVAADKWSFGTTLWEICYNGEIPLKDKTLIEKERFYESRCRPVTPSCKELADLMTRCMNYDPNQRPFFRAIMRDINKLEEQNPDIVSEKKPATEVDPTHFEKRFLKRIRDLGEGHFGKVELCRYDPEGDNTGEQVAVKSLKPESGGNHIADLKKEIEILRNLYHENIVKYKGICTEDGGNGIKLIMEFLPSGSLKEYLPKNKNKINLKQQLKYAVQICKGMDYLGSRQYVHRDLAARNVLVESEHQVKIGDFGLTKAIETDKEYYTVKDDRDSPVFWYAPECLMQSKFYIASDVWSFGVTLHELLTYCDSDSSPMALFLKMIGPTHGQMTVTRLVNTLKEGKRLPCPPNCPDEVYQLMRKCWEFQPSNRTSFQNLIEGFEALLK
How it was run: as §1

[4] = molecular target: T4, JAK2 (Homo sapiens, UniProt O60674); assay: Biochemical JAK2 kinase assay (LanthaScreen)
T4 construct: GST; purchased Life Technologies
T4 sequence (O60674 whole entry): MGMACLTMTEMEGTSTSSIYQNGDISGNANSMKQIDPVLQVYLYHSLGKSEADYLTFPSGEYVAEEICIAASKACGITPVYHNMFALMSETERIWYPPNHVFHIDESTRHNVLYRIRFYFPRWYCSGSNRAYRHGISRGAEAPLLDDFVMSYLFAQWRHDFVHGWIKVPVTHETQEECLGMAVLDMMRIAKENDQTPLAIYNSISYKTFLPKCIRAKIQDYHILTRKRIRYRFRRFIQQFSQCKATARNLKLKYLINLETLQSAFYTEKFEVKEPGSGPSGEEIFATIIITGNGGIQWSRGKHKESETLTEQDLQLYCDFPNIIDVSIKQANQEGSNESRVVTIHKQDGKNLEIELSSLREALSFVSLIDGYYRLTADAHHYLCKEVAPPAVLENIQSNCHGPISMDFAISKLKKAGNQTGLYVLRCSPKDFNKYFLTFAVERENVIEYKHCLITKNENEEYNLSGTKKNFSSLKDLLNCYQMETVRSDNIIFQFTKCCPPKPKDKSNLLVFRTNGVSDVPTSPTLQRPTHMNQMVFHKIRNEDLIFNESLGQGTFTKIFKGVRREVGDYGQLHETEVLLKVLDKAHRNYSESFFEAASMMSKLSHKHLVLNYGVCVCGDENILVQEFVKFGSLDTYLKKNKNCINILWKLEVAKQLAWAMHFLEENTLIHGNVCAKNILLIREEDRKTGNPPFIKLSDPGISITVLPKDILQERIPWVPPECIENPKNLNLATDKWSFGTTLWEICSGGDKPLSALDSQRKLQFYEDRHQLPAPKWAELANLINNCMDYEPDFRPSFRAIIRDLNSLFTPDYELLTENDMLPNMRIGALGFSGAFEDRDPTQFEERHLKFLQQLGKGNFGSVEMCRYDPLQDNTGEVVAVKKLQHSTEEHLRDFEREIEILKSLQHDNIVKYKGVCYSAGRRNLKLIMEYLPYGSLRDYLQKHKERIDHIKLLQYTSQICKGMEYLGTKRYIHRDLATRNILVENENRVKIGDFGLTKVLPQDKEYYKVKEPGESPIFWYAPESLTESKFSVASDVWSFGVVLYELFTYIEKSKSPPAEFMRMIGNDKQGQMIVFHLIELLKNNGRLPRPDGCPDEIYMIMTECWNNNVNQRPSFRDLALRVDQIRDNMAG
How it was run: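 pKi values derive from pIC50 via Cheng-Prusoff, with IC50 from a 4-parameter fit of percent-inhibition TR-FRET data using Tb-anti-pSTAT1 (pTyr701) detection. Compound, GST-JAK2 and GFP-STAT1 substrate were pre-incubated 1 h, then ATP started a 1 h ambient reaction (HEPES pH 7.5, 10 mM MgCl2, 1% DMSO).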

[5] = test system: IL-2 stimulated pSTAT5 in Tall-1 T cells; assay: Cellular JAK3 potency assay: inhibition of IL-2 stimulated pSTAT5 in Tall-1 T cells; assay type: cell-based, human; conditions: IL-2 stimulated pSTAT5, Tall-1 T cells
How it was run: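 Inhibition of IL-2-induced pSTAT5 was quantified by AlphaLisa in Tall-1 cell lysates. Compound exposure lasted 1 h before 30 min stimulation with 300 ng/ml IL-2 final.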

SMILES	JAK 3 (pKi) [1]	JAK3 (pKi)-JAK1 (pKi) [1]	Tyk 2 (pKi) [2]	JAK 1 (pKi) [3]	JAK 2 (pKi) [4]	Tall-1 (pIC50) [5]
C=CC(=O)N1CC2(CC(Oc3cc(-c4ccc(O)c(F)c4)cc4[nH]ncc34)C2)C1 [Compound 15-2]	A (a pKi value≥10 (Ki≤0.1 nM))	B (a value of 2.3 to 3)	E (a pKi value of 7 or below (Ki of 100 nM or above))	D (a pKi value between 7 and 8 (Ki between 100 nM and 10 nM))	D (a pKi value between 7 and 8 (Ki between 100 nM and 10 nM))	A (a pIC50 value≥7.5 (IC50≤32 nM))
CN(C)C/C=C/C(=O)N1CC2(CC(Oc3cc(-c4ccc(O)c(F)c4)cc4[nH]ncc34)C2)C1 [Compound 15-5]	B (a pKi value between 9 and 10 (Ki between 1 nM and 0.1 nM))	B (a value of 2.3 to 3)	E (a pKi value of 7 or below (Ki of 100 nM or above))	D (a pKi value between 7 and 8 (Ki between 100 nM and 10 nM))	D (a pKi value between 7 and 8 (Ki between 100 nM and 10 nM))	B (a pIC50 value between 6.7 (included) and 7.5 (IC50 between 200 nM and 32 nM))
C=CC(=O)N1CC2(CC(Oc3nc(-c4ccc(O)cc4)cc4[nH]ncc34)C2)C1 [Compound 15-7]	B (a pKi value between 9 and 10 (Ki between 1 nM and 0.1 nM))	B (a value of 2.3 to 3)	E (a pKi value of 7 or below (Ki of 100 nM or above))	E (a pKi value of 7 or below (Ki of 100 nM or above))	D (a pKi value between 7 and 8 (Ki between 100 nM and 10 nM))	A (a pIC50 value≥7.5 (IC50≤32 nM))
C=CC(=O)N1CC2(CC(Oc3nc(-c4ccc(O)c(Cl)c4)nc4[nH]ncc34)C2)C1 [Compound 15-9]	A (a pKi value≥10 (Ki≤0.1 nM))	A (a value of 3 or above)	E (a pKi value of 7 or below (Ki of 100 nM or above))	E (a pKi value of 7 or below (Ki of 100 nM or above))	E (a pKi value of 7 or below (Ki of 100 nM or above))	B (a pIC50 value between 6.7 (included) and 7.5 (IC50 between 200 nM and 32 nM))
C=CC(=O)N1CC2(CC(Oc3nc(-c4ccc(O)c(F)c4)nc4[nH]ncc34)C2)C1 [Compound 15-10]	A (a pKi value≥10 (Ki≤0.1 nM))	A (a value of 3 or above)	E (a pKi value of 7 or below (Ki of 100 nM or above))	E (a pKi value of 7 or below (Ki of 100 nM or above))	E (a pKi value of 7 or below (Ki of 100 nM or above))	A (a pIC50 value≥7.5 (IC50≤32 nM))
CN(C)C/C=C/C(=O)N1CC(OCc2cc(-c3ccc(O)c(Cl)c3)cc3[nH]ncc23)C1 [Compound 16-1]	A (a pKi value≥10 (Ki≤0.1 nM))	A (a value of 3 or above)	E (a pKi value of 7 or below (Ki of 100 nM or above))	E (a pKi value of 7 or below (Ki of 100 nM or above))	E (a pKi value of 7 or below (Ki of 100 nM or above))	B (a pIC50 value between 6.7 (included) and 7.5 (IC50 between 200 nM and 32 nM))
C=CC(=O)N1CC(OCc2cc(-c3ccc(O)c(Cl)c3)cc3[nH]ncc23)C1 [Compound 16-2]	A (a pKi value≥10 (Ki≤0.1 nM))	A (a value of 3 or above)	E (a pKi value of 7 or below (Ki of 100 nM or above))	E (a pKi value of 7 or below (Ki of 100 nM or above))	E (a pKi value of 7 or below (Ki of 100 nM or above))	A (a pIC50 value≥7.5 (IC50≤32 nM))
